Laboratory results taken from ChEMBL document CHEMBL4673395, “Discovery of PIPE-359, a Brain-Penetrant, Selective M Receptor Antagonist with Robust Efficacy in Murine MOG-EAE” (ACS Med Chem Lett, 2021).

How the values were obtained:
[1] = target: T1, Muscarinic acetylcholine receptor M1 (Homo sapiens, UniProt P11229); test: Antagonist activity at human recombinant muscarinic receptor M1 expressed in CHO-K1 cells assessed as EC80 acetylcholine-induced calcium flux incubated for 30 mins; assay type: functional, cell-based
T1 sequence (P11229 whole entry): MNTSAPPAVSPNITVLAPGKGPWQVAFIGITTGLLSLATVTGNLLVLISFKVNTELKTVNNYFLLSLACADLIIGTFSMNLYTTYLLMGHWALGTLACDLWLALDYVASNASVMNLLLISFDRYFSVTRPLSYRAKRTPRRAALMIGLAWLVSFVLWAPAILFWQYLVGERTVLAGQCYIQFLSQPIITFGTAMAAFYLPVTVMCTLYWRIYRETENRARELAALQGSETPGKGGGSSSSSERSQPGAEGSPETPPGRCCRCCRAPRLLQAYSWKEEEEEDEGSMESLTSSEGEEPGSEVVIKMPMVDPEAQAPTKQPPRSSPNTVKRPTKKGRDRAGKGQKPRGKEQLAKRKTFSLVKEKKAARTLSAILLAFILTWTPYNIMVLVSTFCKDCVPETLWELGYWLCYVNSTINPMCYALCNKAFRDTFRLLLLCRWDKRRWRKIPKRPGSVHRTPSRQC

[2] = Metabolic stability in rat liver microsomes assessed as parent compound remaining at 1 uM measured at 15 mins by LC-MS/MS analysis; assay type: ADME, Microsome; conditions: read-out: Stabilty
[3] = target: Muscarinic acetylcholine receptor M3 (Homo sapiens, UniProt P20309); test: Antagonist activity at human recombinant muscarinic receptor M3 expressed in CHO-K1 cells assessed as EC80 acetylcholine-induced calcium flux incubated for 30 mins; assay type: functional, cell-based; conditions: read-out: pIC50 (converted)
Muscarinic acetylcholine receptor M3, sequence (P20309 whole entry): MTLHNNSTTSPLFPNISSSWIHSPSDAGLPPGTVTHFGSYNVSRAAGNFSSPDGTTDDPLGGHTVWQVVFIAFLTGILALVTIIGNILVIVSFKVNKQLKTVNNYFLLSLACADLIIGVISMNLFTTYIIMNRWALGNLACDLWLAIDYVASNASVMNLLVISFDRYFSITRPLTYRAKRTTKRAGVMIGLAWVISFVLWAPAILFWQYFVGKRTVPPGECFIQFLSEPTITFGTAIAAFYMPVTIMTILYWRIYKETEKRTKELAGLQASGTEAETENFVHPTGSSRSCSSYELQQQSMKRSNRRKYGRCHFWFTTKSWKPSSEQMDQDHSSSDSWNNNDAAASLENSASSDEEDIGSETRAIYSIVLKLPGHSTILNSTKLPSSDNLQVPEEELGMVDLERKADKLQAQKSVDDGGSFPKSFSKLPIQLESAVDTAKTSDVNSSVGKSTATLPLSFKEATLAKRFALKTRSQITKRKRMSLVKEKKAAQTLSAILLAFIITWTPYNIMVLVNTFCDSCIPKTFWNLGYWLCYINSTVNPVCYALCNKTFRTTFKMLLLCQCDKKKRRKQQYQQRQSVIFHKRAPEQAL

[4] = target: T2, Muscarinic acetylcholine receptor M2 (Homo sapiens, UniProt P08172); test: Antagonist activity at human recombinant muscarinic receptor M2 expressed in CHO-K1 cells assessed as EC80 acetylcholine-induced calcium flux incubated for 30 mins; assay type: functional, cell-based; conditions: read-out: pIC50 (converted)
T2 sequence (P08172 whole entry): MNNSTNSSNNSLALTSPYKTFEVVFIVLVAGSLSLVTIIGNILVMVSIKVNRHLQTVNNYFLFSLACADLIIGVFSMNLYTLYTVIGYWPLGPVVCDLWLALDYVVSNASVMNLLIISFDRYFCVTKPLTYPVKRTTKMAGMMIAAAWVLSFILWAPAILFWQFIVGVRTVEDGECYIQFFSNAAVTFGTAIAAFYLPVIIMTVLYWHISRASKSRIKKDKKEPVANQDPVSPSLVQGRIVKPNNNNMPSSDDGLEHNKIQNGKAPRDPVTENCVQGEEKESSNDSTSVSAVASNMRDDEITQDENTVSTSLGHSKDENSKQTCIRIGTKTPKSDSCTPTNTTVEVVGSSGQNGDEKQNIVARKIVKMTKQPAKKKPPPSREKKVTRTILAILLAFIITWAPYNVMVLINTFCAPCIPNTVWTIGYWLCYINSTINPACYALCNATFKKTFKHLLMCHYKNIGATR

Row | SMILES | IC50 ([1]; read-out: IC50) [nM] | further results
1 | O=C(CCCc1cccc2ncccc12)N1CCN(c2ccncc2)CC1 | 24 | –
2 | N#Cc1ccc(N2CC3CCC(C2)N3C(=O)CCS(=O)(=O)c2cccc3ncsc23)nc1 | 8.7 | –
3 | Cc1cncc(Cl)c1N1CCN(C(=O)CCS(=O)(=O)c2cccc3ncsc23)CC1 | 8500 | –
4 | Cc1cc(F)cnc1N1CCN(C(=O)CCCc2cccc3ncoc23)[C@@H](C)C1 | – | remaining at 0.25 h, 1 µM [2]: 0%
5 | Cc1cc(F)cnc1N1CCN(C(=O)CCS(=O)(=O)c2cccc3ncsc23)[C@@H](C)C1 | 71 | remaining at 0.25 h, 1 µM [2]: 9.6%
6 | Cc1cc(F)cnc1N1CCN(C(=O)COCc2cccc3ncsc23)[C@@H](C)C1 | 3600 | –
7 | N#Cc1ccc(N2C3COCC2CN(C(=O)CCS(=O)(=O)c2cccc4ncsc24)C3)nc1 | 31 | –
8 | Cc1ccncc1N1CCN(C(=O)CCS(=O)(=O)c2cccc3ncsc23)CC1 | 260 | –
9 | O=C(CCNS(=O)(=O)c1cccc2ncccc12)N1CCN(c2ccncc2)CC1 | 130 | –
10 | Cc1cc(F)cnc1N1CCN(C(=O)CCCc2cccc3cncnc23)[C@@H](C)C1 | > 20000 | IC50 ([1]; read-out: pIC50 (converted)): > 10000 nM
11 | Cc1cc(F)cnc1N1CCN(C(=O)CCCc2cccc3ncncc23)[C@@H](C)C1 | 83 | remaining at 0.25 h, 1 µM [2]: 0%
12 | Cc1cc(F)cnc1N1CCN(C(=O)CCCc2cccc3ncccc23)[C@H](C)C1 | – | IC50 [3]: 501 nM; IC50 [4]: 631 nM
13 | O=C(CCS(=O)(=O)c1cccc2ncsc12)N1CCN(c2ccnc(C(F)(F)F)c2)CC1 | 4800 | –
14 | CC1(C)CN(c2ccc(C#N)cn2)CCN1C(=O)CCS(=O)(=O)c1cccc2ncsc12 | 4100 | –

Continued, in another order:

Row | IC50 ([1]; read-out: IC50) [nM] | SMILES | further results
15 | 1400 | Cc1cc(F)cnc1N1CCCN(C(=O)CCCc2cccc3ncccc23)CC1 | –
16 | 1100 | N#Cc1cnccc1N1CCN(C(=O)CCCc2cccc3ncccc23)CC1 | –
17 | 24 | Cc1cc(F)cnc1N1CCN(C(=O)CCCc2cccc3ncsc23)[C@@H](C)C1 | remaining at 0.25 h, 1 µM [2]: 5.3%
18 | 20 | Cc1ccncc1N1CCN(C(=O)CCCc2cccc3ncccc23)[C@H](C)C1 | –
19 | 300 | COc1cc(N2CCN(C(=O)CCCc3cccc4ncccc34)CC2)ccn1 | –
20 | > 170 | Cc1cc(F)cnc1N1CCN(C(=O)CCCc2cccc3ncc(CO)cc23)[C@@H](C)C1 | IC50 ([1]; read-out: pIC50 (converted)): 158 nM; remaining at 0.25 h, 1 µM [2]: 1%
